Results from patent US9409952B2, “Peptide-compound cyclization method” (Chugai Seiyaku Kabushiki Kaisha, priority 2011, dated 2016).
Positions of bridges follow the written chain, without caps; N, C: chain ends. Non-standard residues stand in square brackets, D forms with d. Residues, ends and D or L forms follow the SMILES beside them. *: point of attachment. Ala(4-thiazolyl) = N[C@@H](Cc1cscn1)C(=O)O; Tyr(3-F) = N[C@@H](Cc1ccc(O)c(F)c1)C(=O)O; NMeF = CN[C@@H](Cc1ccccc1)C(=O)O; NMeI = CC[C@H](C)[C@H](NC)C(=O)O; AllylGly = C=CC[C@H](N)C(=O)O; NMeL = CN[C@@H](CC(C)C)C(=O)O; NMeV = CN[C@H](C(=O)O)C(C)C; Pip = O=C(O)[C@@H]1CCCCN1; NMeA = CN[C@@H](C)C(=O)O; Piperidide = C1CCN(*)CC1; Aze = O=C(O)[C@@H]1CCN1; Sar = CNCC(=O)O

Experiment: Metabolic stability in human hepatic microsome
Type: in vitro ADME
Conditions: microsomes, pH 7.4; human hepatic microsome, NADPH(+); read-out: CL NADPH(+)
In the case of `CC[C@H](C)[C@@H]1NC(=O)[C@H](C)N(C)C(=O)CN(C)C(=O)C[C@@H](C(=O)N2CCCCC2)NC(=O)[C@H](CC(C)C)N(C)C(=O)[C@H](C)N(C)C(=O)[C@H](Cc2ccccc2)N(C)C(=O)[C@H]([C@@H](C)O)NC(=O)[C@H](Cc2ccccc2)N(C)C(=O)[C@H](CC(C)C)N(C)C1=O` [DP-519] ([Sar][NMeA]I[NMeL][NMeF]T[NMeF][NMeA][NMeL]D-Piperidide; lactam N-10), the microsomal CLint at 1 uM is reported as 157 µL/min/mg. `CC(C)C[C@@H]1NC(=O)[C@H](CC(C)C)NC(=O)[C@H](C)N(C)C(=O)C[C@@H](C(=O)N2CCCCC2)NC(=O)[C@H](C(C)C)N(C)C(=O)[C@H](CC(C)C)NC(=O)[C@H](Cc2ccccc2)NC(=O)[C@H]([C@@H](C)O)NC(=O)[C@@H]2CCN2C(=O)[C@H](CC(C)C)NC(=O)[C@H](C)NC1=O` [DP-548] ([NMeA]LLAL[Aze]TFL[NMeV]D-Piperidide; lactam N-11) gave a microsomal CLint at 1 uM of 16 µL/min/mg. `CC[C@H](C)[C@H]1C(=O)NCC(=O)N(C)[C@@H](CC(C)C)C(=O)N[C@@H]([C@@H](C)O)C(=O)N2CCC[C@H]2C(=O)N[C@@H](Cc2ccccc2)C(=O)N[C@H](C(=O)N2CCCCC2)CC(=O)N2CC[C@H]2C(=O)N[C@@H](Cc2ccccc2)C(=O)N(C)[C@@H](CC(C)C)C(=O)N[C@@H](CC(C)C)C(=O)N1C` [DP-550] ([Aze]F[NMeL]L[NMeI]G[NMeL]TPFD-Piperidide; lactam N-11) showed a microsomal CLint at 1 uM of 108 µL/min/mg. `CC[C@H](C)[C@H]1C(=O)NCC(=O)N(C)[C@@H](CC(C)C)C(=O)N[C@@H]([C@@H](C)O)C(=O)N2CCC[C@H]2C(=O)N[C@@H](Cc2ccccc2)C(=O)N[C@H](C(=O)N2CCCCC2)CC(=O)N(C)[C@@H](C)C(=O)N[C@@H](Cc2ccccc2)C(=O)N2CC[C@H]2C(=O)N[C@@H](CC(C)C)C(=O)N1C` [DP-552] ([NMeA]F[Aze]L[NMeI]G[NMeL]TPFD-Piperidide; lactam N-11) gave a microsomal CLint at 1 uM of 157 µL/min/mg. `CC[C@H](C)[C@H]1C(=O)NCC(=O)N(C)[C@@H](CC(C)C)C(=O)N[C@@H]([C@@H](C)O)C(=O)N2CCC[C@H]2C(=O)N[C@@H](Cc2ccccc2)C(=O)N[C@H](C(=O)N2CCCCC2)CC(=O)N(C)[C@@H](C)C(=O)N[C@@H](Cc2ccccc2)C(=O)N2CCCC[C@H]2C(=O)N[C@@H](CC(C)C)C(=O)N1C` [DP-553] ([NMeA]F[Pip]L[NMeI]G[NMeL]TPFD-Piperidide; lactam N-11) showed a microsomal CLint at 1 uM of 106 µL/min/mg. Work on `CC(C)C[C@@H]1NC(=O)[C@H](CC(C)C)N(C)C(=O)[C@H](Cc2ccccc2)NC(=O)[C@H](C)N(C)C(=O)C[C@@H](C(=O)N2CCCCC2)NC(=O)[C@H](Cc2ccccc2)NC(=O)[C@@H]2CCCN2C(=O)[C@H]([C@@H](C)O)NC(=O)[C@H](CC(C)C)N(C)C(=O)CNC(=O)[C@@H]2CCN2C1=O` [DP-554] ([NMeA]F[NMeL]L[Aze]G[NMeL]TPFD-Piperidide; lactam N-11) yielded a microsomal CLint at 1 uM of 80 µL/min/mg. With `CC(C)C[C@@H]1NC(=O)[C@H](CC(C)C)N(C)C(=O)[C@H](Cc2ccccc2)NC(=O)[C@H](C)N(C)C(=O)C[C@@H](C(=O)N2CCCCC2)NC(=O)[C@H](Cc2ccccc2)NC(=O)[C@@H]2CCCN2C(=O)[C@H]([C@@H](C)O)NC(=O)[C@H](CC(C)C)N(C)C(=O)CNC(=O)[C@@H]2CCCCN2C1=O` [DP-555] ([NMeA]F[NMeL]L[Pip]G[NMeL]TPFD-Piperidide; lactam N-11) the microsomal CLint at 1 uM was 95 µL/min/mg. For `CC[C@H](C)[C@H]1C(=O)NCC(=O)N2CC[C@H]2C(=O)N[C@@H]([C@@H](C)O)C(=O)N2CCC[C@H]2C(=O)N[C@@H](Cc2ccccc2)C(=O)N[C@H](C(=O)N2CCCCC2)CC(=O)N(C)[C@@H](C)C(=O)N[C@@H](Cc2ccccc2)C(=O)N(C)[C@@H](CC(C)C)C(=O)N[C@@H](CC(C)C)C(=O)N1C` [DP-556] ([NMeA]F[NMeL]L[NMeI]G[Aze]TPFD-Piperidide; lactam N-11), the microsomal CLint at 1 uM was 65 µL/min/mg. For `CC[C@H](C)[C@H]1C(=O)NCC(=O)N2CCCC[C@H]2C(=O)N[C@@H]([C@@H](C)O)C(=O)N2CCC[C@H]2C(=O)N[C@@H](Cc2ccccc2)C(=O)N[C@H](C(=O)N2CCCCC2)CC(=O)N(C)[C@@H](C)C(=O)N[C@@H](Cc2ccccc2)C(=O)N(C)[C@@H](CC(C)C)C(=O)N[C@@H](CC(C)C)C(=O)N1C` [DP-557] ([NMeA]F[NMeL]L[NMeI]G[Pip]TPFD-Piperidide; lactam N-11), the microsomal CLint at 1 uM was 96 µL/min/mg. With `CC[C@H](C)[C@H]1C(=O)NCC(=O)N(C)[C@@H](CC(C)C)C(=O)N[C@@H]([C@@H](C)O)C(=O)N2CC[C@H]2C(=O)N[C@@H](Cc2ccccc2)C(=O)N[C@H](C(=O)N2CCCCC2)CC(=O)N(C)[C@@H](C)C(=O)N[C@@H](Cc2ccccc2)C(=O)N(C)[C@@H](CC(C)C)C(=O)N[C@@H](CC(C)C)C(=O)N1C` [DP-558] ([NMeA]F[NMeL]L[NMeI]G[NMeL]T[Aze]FD-Piperidide; lactam N-11) the microsomal CLint at 1 uM was 133 µL/min/mg. `CC[C@H](C)[C@H]1C(=O)NCC(=O)N(C)[C@@H](CC(C)C)C(=O)N[C@@H]([C@@H](C)O)C(=O)N2CCCC[C@H]2C(=O)N[C@@H](Cc2ccccc2)C(=O)N[C@H](C(=O)N2CCCCC2)CC(=O)N(C)[C@@H](C)C(=O)N[C@@H](Cc2ccccc2)C(=O)N(C)[C@@H](CC(C)C)C(=O)N[C@@H](CC(C)C)C(=O)N1C` [DP-559] ([NMeA]F[NMeL]L[NMeI]G[NMeL]T[Pip]FD-Piperidide; lactam N-11) showed a microsomal CLint at 1 uM of 145 µL/min/mg. `CC(C)C[C@@H]1NC(=O)[C@H](CC(C)C)N(C)C(=O)[C@H](CC(C)C)N(C)C(=O)[C@H](Cc2ccccc2)NC(=O)[C@H](Cc2ccccc2)N(C)C(=O)[C@H](CCC(N)=O)NC(=O)[C@H](CC(C)C)N(C)C(=O)[C@H](Cc2ccccc2)NC(=O)[C@H](C)NC(=O)C[C@@H](C(=O)N(C)[C@@H](Cc2ccccc2)C(=O)N[C@@H](C)C(=O)N2CCCCC2)NC1=O` [DP-601] (AF[NMeL]Q[NMeF]F[NMeL][NMeL]LD[NMeF]A-Piperidide; lactam N-10) showed a microsomal CLint at 1 uM of 21 µL/min/mg. For `CC(C)C[C@@H]1NC(=O)[C@H](CC(C)C)N(C)C(=O)[C@H](CC(C)C)N(C)C(=O)[C@H](CCC(N)=O)NC(=O)[C@H](Cc2ccccc2)N(C)C(=O)[C@H]([C@@H](C)O)NC(=O)[C@H](CC(C)C)N(C)C(=O)[C@H](Cc2ccccc2)NC(=O)[C@H](C)NC(=O)C[C@@H](C(=O)N(C)[C@@H](Cc2ccccc2)C(=O)N[C@@H](C)C(=O)N2CCCCC2)NC1=O` [DP-602] (AF[NMeL]T[NMeF]Q[NMeL][NMeL]LD[NMeF]A-Piperidide; lactam N-10), the microsomal CLint at 1 uM was 26 µL/min/mg. `CC(C)C[C@@H]1NC(=O)[C@H](CC(C)C)N(C)C(=O)[C@H](CC(C)C)N(C)C(=O)[C@H](C)NC(=O)[C@H](Cc2ccccc2)N(C)C(=O)[C@H](CCC(=O)N(C)C)NC(=O)[C@H](CC(C)C)N(C)C(=O)[C@H](Cc2ccccc2)NC(=O)[C@H](C)NC(=O)C[C@@H](C(=O)N(C)[C@@H](Cc2ccccc2)C(=O)N[C@@H](C)C(=O)N2CCCCC2)NC1=O` [DP-603] (AF[NMeL]E(NMe2)[NMeF]A[NMeL][NMeL]LD[NMeF]A-Piperidide; lactam N-10) gave a microsomal CLint at 1 uM of 17 µL/min/mg. Work on `CC(C)C[C@@H]1NC(=O)[C@H](CC(C)C)N(C)C(=O)[C@H](CC(C)C)N(C)C(=O)CNC(=O)[C@H](Cc2ccccc2)N(C)C(=O)[C@H]([C@@H](C)O)NC(=O)[C@H](CC(C)C)N(C)C(=O)[C@H](Cc2ccc(O)c(F)c2)NC(=O)[C@H](C)NC(=O)C[C@@H](C(=O)N(C)[C@@H](Cc2ccccc2)C(=O)N[C@@H](C)C(=O)N2CCCCC2)NC1=O` [DP-605] (A[Tyr(3-F)][NMeL]T[NMeF]G[NMeL][NMeL]LD[NMeF]A-Piperidide; lactam N-10) yielded a microsomal CLint at 1 uM of 30 µL/min/mg. Compound `CC(C)C[C@@H]1NC(=O)[C@H](CC(C)C)N(C)C(=O)[C@H](C)N(C)C(=O)[C@H](Cc2ccc(O)c(F)c2)NC(=O)[C@H](Cc2ccccc2)N(C)C(=O)[C@H]([C@@H](C)O)NC(=O)[C@H](CC(C)C)N(C)C(=O)[C@H](Cc2ccccc2)NC(=O)[C@H](C)NC(=O)C[C@@H](C(=O)N(C)[C@@H](Cc2ccccc2)C(=O)N[C@@H](C)C(=O)N2CCCCC2)NC1=O` [DP-606] (AF[NMeL]T[NMeF][Tyr(3-F)][NMeA][NMeL]LD[NMeF]A-Piperidide; lactam N-10) has a microsomal CLint at 1 uM of 70 µL/min/mg. Compound `CC(C)C[C@H]1C(=O)N(C)[C@@H](CC(C)C)C(=O)N[C@@H](Cc2c[nH]c3ccccc23)C(=O)N[C@H](C(=O)N(C)[C@@H](Cc2ccccc2)C(=O)N[C@@H](C)C(=O)N2CCCCC2)CC(=O)N[C@@H](C)C(=O)N[C@@H](Cc2ccccc2)C(=O)N(C)[C@@H](CC(C)C)C(=O)N[C@@H]([C@@H](C)O)C(=O)N(C)[C@@H](Cc2ccccc2)C(=O)NCC(=O)N1C` [DP-608] (AF[NMeL]T[NMeF]G[NMeL][NMeL]WD[NMeF]A-Piperidide; lactam N-10) has a microsomal CLint at 1 uM of 13 µL/min/mg. Work on `CC(C)C[C@@H]1NC(=O)[C@H](CC(C)C)N(C)C(=O)[C@H](CC(C)C)N(C)C(=O)CNC(=O)[C@H](Cc2ccccc2)N(C)C(=O)[C@H](Cc2cscn2)NC(=O)[C@H](CC(C)C)N(C)C(=O)[C@H](Cc2ccccc2)NC(=O)[C@H](C)NC(=O)C[C@@H](C(=O)N(C)[C@@H](Cc2ccccc2)C(=O)N[C@@H](C)C(=O)N2CCCCC2)NC1=O` [DP-609] (AF[NMeL][Ala(4-thiazolyl)][NMeF]G[NMeL][NMeL]LD[NMeF]A-Piperidide; lactam N-10) yielded a microsomal CLint at 1 uM of 16 µL/min/mg. For `C=CC[C@@H]1NC(=O)[C@H](CC(C)C)N(C)C(=O)[C@H](CC(C)C)N(C)C(=O)CNC(=O)[C@H](Cc2ccccc2)N(C)C(=O)[C@H]([C@@H](C)O)NC(=O)[C@H](CC(C)C)N(C)C(=O)[C@H](Cc2ccccc2)NC(=O)[C@H](C)NC(=O)C[C@@H](C(=O)N(C)[C@@H](Cc2ccccc2)C(=O)N[C@@H](C)C(=O)N2CCCCC2)NC1=O` [DP-611] (AF[NMeL]T[NMeF]G[NMeL][NMeL][AllylGly]D[NMeF]A-Piperidide; lactam N-10), the microsomal CLint at 1 uM was 20 µL/min/mg. In the case of `C=CC[C@@H]1NC(=O)[C@H](Cc2ccccc2)N(C)C(=O)[C@H]([C@@H](C)O)NC(=O)[C@H](CC(C)C)N(C)C(=O)[C@H](Cc2ccccc2)NC(=O)[C@H](C)NC(=O)C[C@@H](C(=O)N(C)[C@@H](Cc2ccccc2)C(=O)N[C@@H](C)C(=O)N2CCCCC2)NC(=O)[C@H](CC(C)C)NC(=O)[C@H](CC(C)C)N(C)C(=O)[C@H](C)N(C)C1=O` [DP-612] (AF[NMeL]T[NMeF][AllylGly][NMeA][NMeL]LD[NMeF]A-Piperidide; lactam N-10), the microsomal CLint at 1 uM is reported as 155 µL/min/mg.
